Each block holds one molecule with its values, some of them ahead of it.
Columns and labels:
[1] = system: organotypic hippocampal slice cultures, CA1 region pyramidal cells; test: Ethanol withdrawal toxicity (propidium iodide uptake) in organotypic hippocampal slice cultures; format: cell-based
Text: (FIG. 2A). […] Co-exposure to the selective glucocorticoid receptor antagonist ORG 34517 with ethanol and corticosterone prevented this withdrawal toxicity. Representative PI images above, (FIG. 2B). Results shown in graph form. *=P<0.05 vs control; **=P<0.05 vs EtOH WD+CORT.
Corticosterone's exacerbation of ethanol withdrawal toxicity is blocked by […] coadministration. […] (FIG. 2). […] Co-exposure to the selective glucocorticoid receptor antagonist ORG 34517 with ethanol and corticosterone prevented this withdrawal toxicity. Representative PI images above, graphed below. *=P<0.05 vs control; **=P<0.05 vs EtOH WD+CORT.

glucocorticoid receptor = target: T1, glucocorticoid receptor (Homo sapiens, UniProt P04150); settings: cited from earlier work
T1 sequence (P04150 1-777): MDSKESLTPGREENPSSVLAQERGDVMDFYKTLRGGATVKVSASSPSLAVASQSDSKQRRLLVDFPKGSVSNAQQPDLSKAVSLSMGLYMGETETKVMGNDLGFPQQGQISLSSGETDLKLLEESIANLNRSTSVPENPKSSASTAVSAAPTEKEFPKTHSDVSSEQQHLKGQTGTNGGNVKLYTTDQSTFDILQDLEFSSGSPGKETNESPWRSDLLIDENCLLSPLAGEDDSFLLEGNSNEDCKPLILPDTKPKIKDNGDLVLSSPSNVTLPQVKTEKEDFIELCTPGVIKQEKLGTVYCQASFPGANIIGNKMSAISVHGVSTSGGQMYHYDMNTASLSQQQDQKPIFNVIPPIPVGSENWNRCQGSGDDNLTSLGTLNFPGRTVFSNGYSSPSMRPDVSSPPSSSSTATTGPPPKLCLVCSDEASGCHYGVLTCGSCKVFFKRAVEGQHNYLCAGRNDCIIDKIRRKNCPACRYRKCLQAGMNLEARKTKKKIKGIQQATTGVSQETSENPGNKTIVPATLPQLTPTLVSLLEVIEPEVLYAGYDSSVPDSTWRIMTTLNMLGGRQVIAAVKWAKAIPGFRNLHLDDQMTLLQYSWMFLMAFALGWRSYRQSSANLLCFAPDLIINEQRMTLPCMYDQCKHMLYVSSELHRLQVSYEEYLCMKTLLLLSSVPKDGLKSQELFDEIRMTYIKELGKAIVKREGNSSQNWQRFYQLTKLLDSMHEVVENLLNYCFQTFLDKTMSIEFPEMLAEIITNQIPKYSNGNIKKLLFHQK

estrogen receptor = target: T2, estrogen receptor (Homo sapiens, UniProt P03372); settings: cited from earlier work
T2 sequence (P03372 1-595): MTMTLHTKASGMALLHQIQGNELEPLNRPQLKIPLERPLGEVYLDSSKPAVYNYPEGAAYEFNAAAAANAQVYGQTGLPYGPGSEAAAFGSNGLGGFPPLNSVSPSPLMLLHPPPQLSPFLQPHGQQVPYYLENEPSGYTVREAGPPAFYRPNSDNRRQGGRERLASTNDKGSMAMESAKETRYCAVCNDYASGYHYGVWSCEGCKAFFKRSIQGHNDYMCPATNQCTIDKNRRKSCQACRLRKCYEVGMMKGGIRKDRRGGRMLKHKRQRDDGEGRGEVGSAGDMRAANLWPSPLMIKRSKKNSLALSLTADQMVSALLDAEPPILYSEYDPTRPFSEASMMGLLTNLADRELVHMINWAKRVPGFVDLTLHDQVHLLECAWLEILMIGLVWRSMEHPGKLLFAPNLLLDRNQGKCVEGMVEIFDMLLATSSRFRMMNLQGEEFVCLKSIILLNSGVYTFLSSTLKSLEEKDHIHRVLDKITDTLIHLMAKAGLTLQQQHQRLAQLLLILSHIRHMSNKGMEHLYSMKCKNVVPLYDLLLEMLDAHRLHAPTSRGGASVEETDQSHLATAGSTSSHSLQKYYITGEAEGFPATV

progesterone receptor = target: T3, progesterone receptor (Homo sapiens, UniProt P06401); settings: cited from earlier work
T3 sequence (P06401 1-933): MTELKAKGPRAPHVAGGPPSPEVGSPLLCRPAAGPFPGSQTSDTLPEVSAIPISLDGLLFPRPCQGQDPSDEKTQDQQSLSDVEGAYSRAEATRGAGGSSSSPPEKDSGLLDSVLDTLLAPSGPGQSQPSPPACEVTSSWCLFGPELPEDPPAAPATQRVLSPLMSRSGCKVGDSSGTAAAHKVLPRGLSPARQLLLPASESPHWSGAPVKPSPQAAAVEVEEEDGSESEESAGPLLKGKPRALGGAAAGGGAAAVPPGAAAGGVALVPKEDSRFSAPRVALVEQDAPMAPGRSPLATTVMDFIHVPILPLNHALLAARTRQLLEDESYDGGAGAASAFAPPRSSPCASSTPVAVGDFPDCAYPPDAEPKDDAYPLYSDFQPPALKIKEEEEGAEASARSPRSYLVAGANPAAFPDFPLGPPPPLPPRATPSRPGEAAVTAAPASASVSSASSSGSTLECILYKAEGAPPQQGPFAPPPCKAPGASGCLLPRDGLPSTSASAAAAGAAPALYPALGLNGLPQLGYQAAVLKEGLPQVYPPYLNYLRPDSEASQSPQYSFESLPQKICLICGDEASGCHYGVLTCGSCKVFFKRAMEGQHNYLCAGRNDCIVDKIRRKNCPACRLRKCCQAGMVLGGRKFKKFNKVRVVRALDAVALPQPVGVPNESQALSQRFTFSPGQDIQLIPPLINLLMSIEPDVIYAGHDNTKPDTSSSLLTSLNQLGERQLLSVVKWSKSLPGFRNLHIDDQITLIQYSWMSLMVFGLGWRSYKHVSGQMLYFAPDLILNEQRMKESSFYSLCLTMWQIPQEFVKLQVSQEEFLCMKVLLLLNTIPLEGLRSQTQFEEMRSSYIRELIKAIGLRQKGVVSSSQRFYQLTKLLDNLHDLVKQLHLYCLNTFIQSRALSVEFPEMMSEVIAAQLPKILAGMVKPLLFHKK

[2] = all phase I and phase II clinical trials performed with the compound; cited from earlier work

behavior of ethanol-naïve rats (adult male rats; rat, in vivo): did not alter behavior in any manner
SMILES: CC#C[C@]1(O)CC[C@H]2[C@@H]3CCC4=CC(=O)CCC4=C3[C@@H](c3ccc4c(c3)OCO4)C[C@@]21C [ORG 34517, (11β,17β)-11-(1,3-benzodioxol-5-yl)-17-hydroxy-17-(1-propynyl)estra-4,9-dien-3-one]
ethanol withdrawal toxicity (propidium iodide uptake, CA1 region) ([1]; co-exposure with ethanol (50 mM) and corticosterone (1 μM), 1 day of ethanol withdrawal, P<0.05 vs EtOH WD+CORT): prevented
behavioral symptoms of the ethanol withdrawal syndrome (adult male rats; 20 mg/kg s.c. once daily immediately prior to binge ethanol (i.g.) at 0800 hrs on 4 consecutive days, adult male rats, P<0.001 vs EtOH WD): significantly reduced
reductions in whole body tremor and wet shakes (adult male rats; 20 mg/kg s.c. once daily prior to binge ethanol, 4 days, adult male rats): most evident
glucocorticoid receptor binding affinity (glucocorticoid receptor): high
cross-binding / affinity for estrogen receptor (estrogen receptor): without significant cross-binding
cross-binding / affinity for progesterone receptor (progesterone receptor): without significant cross-binding
significant toxicities and side effects [2]: none were identified

SMILES: C[C@]12C[C@H](O)[C@H]3[C@@H](CCC4=CC(=O)CC[C@@]43C)[C@@H]1CC[C@@H]2C(=O)CO [corticosterone]
toxicity (propidium iodide uptake) in CA1 region pyramidal cells ([1]; corticosterone 1 μM with ethanol 50 mM, then 1 day of ethanol withdrawal in the presence of corticosterone): significant toxicity
propidium iodide uptake, exposure alone ([1]; corticosterone alone): did not alter

peak blood ethanol levels (adult male rats; male, rat, in vivo, 4 days): 180.27-103.5
SMILES: CCO [ethanol]
